Like-named read-outs stand apart in the source and are kept apart here. Where only a bound is given, the exact number is not on record here.

From patent US11028095B2, “Spiro-lactam and bis-spiro-lactam NMDA receptor modulators and uses thereof” (Aptinyx Inc., priority 2016, dated 2021) come the findings set out here.

Format in all cases: biochemical
For assay [1], the target named is T1, NMDAR2A expressing HEK cell membranes (Homo sapiens, UniProt Q05586+Q12879).
T1 construct: expressed in transfected cells; host or cells: HEK cells (membrane extract)
T1 sequence (Q12879 23-1464, other chains not shown): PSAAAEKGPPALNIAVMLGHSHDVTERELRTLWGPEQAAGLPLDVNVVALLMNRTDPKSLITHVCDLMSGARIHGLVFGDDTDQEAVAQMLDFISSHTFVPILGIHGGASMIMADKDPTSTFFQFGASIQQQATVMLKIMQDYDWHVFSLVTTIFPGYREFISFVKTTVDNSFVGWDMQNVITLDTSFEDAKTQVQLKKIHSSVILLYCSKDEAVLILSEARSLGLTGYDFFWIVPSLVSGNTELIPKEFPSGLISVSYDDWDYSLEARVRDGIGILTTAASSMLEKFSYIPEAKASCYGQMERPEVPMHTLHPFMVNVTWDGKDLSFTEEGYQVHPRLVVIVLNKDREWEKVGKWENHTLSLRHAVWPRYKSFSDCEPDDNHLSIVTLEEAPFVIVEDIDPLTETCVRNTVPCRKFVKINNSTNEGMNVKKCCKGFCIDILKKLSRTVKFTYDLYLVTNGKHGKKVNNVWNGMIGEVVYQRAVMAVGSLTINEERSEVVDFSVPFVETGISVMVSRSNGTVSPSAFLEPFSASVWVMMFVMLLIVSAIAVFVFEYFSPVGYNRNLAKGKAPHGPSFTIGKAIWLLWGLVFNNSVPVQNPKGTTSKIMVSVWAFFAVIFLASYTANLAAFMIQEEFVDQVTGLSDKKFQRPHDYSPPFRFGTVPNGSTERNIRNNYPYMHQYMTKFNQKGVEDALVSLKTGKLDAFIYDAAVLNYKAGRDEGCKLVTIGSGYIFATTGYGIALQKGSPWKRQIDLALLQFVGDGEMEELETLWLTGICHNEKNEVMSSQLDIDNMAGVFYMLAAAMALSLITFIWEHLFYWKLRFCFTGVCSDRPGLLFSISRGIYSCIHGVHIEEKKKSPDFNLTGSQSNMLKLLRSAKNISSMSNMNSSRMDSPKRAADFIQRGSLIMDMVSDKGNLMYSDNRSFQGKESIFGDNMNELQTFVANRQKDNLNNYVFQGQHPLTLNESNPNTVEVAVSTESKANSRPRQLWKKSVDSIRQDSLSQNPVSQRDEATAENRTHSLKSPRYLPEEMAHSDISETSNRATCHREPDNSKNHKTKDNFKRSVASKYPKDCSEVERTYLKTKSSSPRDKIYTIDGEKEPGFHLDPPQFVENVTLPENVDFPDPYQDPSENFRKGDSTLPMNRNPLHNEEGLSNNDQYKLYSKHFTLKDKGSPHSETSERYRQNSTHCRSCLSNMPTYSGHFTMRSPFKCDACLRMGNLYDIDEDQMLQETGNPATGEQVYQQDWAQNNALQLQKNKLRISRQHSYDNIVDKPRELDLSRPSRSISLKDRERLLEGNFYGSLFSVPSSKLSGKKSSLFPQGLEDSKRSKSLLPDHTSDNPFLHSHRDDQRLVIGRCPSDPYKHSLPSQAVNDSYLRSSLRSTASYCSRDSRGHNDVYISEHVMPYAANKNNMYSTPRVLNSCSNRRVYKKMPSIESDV
In words: NMDAR agonist assay, [3H]MK-801 binding, NMDAR2A. To be noted: for EC50: [3H]MK-801 binding; for Emax: relative to 1 mM glycine, read-out: NMDAR2A: % maximal [3H]MK-801 binding relative to 1 mM glycine. The method, then: (§1) (nonequilibrium conditions).
(§2) The baseline value was determined from the best fit curve of the DPM values modeled using the GraphPad program and the log(agonist) vs. response(three parameters) algorithm was then subtracted from all points in the dataset.

Assay [2] concerns the target T2, NMDAR2A expressing HEK cell membranes (Homo sapiens, UniProt Q12879).
T2 construct: expressed in transfected cells; host or cells: HEK cells (membrane extract)
The assay is described as follows: NMDAR agonist assay, [3H]MK-801 binding, NMDAR2A. As to conditions: 50 μM glutamate; relative to 1 mM glycine. The method, then: as §1, §2

In assay [3] the target is T3, NMDAR2B expressing HEK cell membranes (Homo sapiens, UniProt Q05586+Q13224).
T3 construct: expressed in transfected cells; host or cells: HEK cells (membrane extract)
T3 sequence (Q13224 27-1484, other chains not shown): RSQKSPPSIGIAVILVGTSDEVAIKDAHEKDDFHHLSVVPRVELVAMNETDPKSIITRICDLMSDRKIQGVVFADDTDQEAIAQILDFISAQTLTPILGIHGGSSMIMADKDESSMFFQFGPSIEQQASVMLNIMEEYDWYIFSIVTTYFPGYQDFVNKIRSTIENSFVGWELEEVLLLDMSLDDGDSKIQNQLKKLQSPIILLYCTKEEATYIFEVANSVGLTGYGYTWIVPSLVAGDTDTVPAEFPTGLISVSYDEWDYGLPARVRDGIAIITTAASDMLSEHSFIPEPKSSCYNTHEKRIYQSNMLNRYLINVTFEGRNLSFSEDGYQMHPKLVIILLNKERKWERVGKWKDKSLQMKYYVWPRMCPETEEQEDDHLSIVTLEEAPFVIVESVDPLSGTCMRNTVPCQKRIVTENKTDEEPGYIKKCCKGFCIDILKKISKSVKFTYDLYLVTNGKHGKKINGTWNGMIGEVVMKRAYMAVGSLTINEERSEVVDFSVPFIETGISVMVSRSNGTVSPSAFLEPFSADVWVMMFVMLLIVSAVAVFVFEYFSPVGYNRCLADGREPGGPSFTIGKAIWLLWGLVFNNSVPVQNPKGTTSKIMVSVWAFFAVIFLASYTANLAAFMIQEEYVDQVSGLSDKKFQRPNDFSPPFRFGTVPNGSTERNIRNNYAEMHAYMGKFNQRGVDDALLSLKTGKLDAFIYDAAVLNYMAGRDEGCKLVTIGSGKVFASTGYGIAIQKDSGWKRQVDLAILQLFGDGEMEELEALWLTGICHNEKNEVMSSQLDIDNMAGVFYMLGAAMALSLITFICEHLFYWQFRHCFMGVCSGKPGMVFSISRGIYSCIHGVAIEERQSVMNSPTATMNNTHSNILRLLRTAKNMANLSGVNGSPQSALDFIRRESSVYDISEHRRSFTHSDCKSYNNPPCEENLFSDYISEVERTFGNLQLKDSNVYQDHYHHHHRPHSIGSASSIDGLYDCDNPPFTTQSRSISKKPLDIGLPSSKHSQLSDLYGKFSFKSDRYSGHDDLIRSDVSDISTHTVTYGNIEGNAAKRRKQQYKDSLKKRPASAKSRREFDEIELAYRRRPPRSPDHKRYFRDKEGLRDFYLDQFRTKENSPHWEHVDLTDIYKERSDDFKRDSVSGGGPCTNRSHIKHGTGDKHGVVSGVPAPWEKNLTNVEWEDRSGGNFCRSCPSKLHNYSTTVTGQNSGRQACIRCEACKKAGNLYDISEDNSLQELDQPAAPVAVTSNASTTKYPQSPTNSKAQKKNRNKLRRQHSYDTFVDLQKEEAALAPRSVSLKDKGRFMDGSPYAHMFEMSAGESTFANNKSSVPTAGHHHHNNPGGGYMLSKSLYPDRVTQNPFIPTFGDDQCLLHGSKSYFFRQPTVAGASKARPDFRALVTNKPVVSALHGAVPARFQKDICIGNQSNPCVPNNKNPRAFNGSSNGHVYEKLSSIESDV
The assay is described as follows: NMDAR agonist assay, [3H]MK-801 binding, NMDAR2B. To be noted: for EC50: [3H]MK-801 binding. The method, then:
as §1, §2

Assay [4] has as its target T4, NMDAR2B expressing HEK cell membranes (Homo sapiens, UniProt Q13224).
T4 construct: expressed in transfected cells; host or cells: HEK cells (membrane extract)
The assay is described as follows: NMDAR agonist assay, [3H]MK-801 binding, NMDAR2B. To be noted: 50 μM glutamate; for EC50: [3H]MK-801 binding, read-out: NMDAR2B log EC50 (converted). The method, then: as §1, §2

In assay [5] the target is T5, NMDAR2D expressing HEK cell membranes (Homo sapiens, UniProt O15399+Q05586).
T5 construct: expressed in transfected cells; host or cells: HEK cells (membrane extract)
In words: NMDAR agonist assay, [3H]MK-801 binding, NMDAR2D. As to conditions: 50 μM glutamate; for EC50: [3H]MK-801 binding, read-out: NMDAR2D: log EC50 (converted); for Emax: relative to 1 mM glycine, read-out: NMDAR2D: % maximal [3H]MK-801 binding relative to 1 mM glycine. On the procedure:
as §1, §2

Where [6] appears, read: NMDAR2A: log EC50, 50 μM glutamate.
The mark [7] stands for this setting: NMDAR2B: log EC50, 50 μM glutamate.
Setting [8] is: 50 μM glutamate, read-out: NMDAR2A: log EC50 (converted).
[9] abbreviates: 50 μM glutamate, read-out: NMDAR2B log EC50 (converted).

T4 sequence (Q13224 27-1484, other chains not shown): as above

With `CN1C2(CCC13CNC3=O)CNC2=O` (single isomer, unassigned) [AB-1, 5-methyl-2,5,8-triazadispiro[3.1.36.24]undecane-1,7-dione], the EC50 in assay [1] (setting [6]) was below 1 nM; in assay [3] (setting [7]) it was above 100 nM. The “NMDAR2A: % maximal [3H]MK-801 binding relative to 1 mM glycine” value in assay [2] is listed as “+ (<100%=+)”. Also, the “NMDAR2B: % maximal [3H]MK-801 binding relative to 1 mM glycine” value in assay [4] is recorded as “− (−=0)”.

On to `O=C1NCC12CCC1(CNC1=O)N2` (single isomer, unassigned) [AK, 2,5,8-triazadispiro[3.1.36.24]undecane-1,7-dione], for which the EC50 in assay [1] (setting [6]) and in assay [3] (setting [7]) was above 100 nM each time. Also, in assay [2], the “NMDAR2A: % maximal [3H]MK-801 binding relative to 1 mM glycine” value is listed as “− (−=0)”. The “NMDAR2B: % maximal [3H]MK-801 binding relative to 1 mM glycine” value in assay [4] is “− (−=0)”.

`CC(C)C(=O)N1C(C(=O)N[C@H](C(N)=O)[C@@H](C)O)CCC12CNC2=O` (single isomer, unassigned) [AR]: the EC50 in assay [1] (setting [8]) and in assay [3] (setting [9]) was above 100 nM each time. Besides, the “NMDAR2A: % maximal [3H]MK-801 binding relative to 1 mM glycine” value in assay [2] is “− (−=0)”. Moreover, the “NMDAR2B: % maximal [3H]MK-801 binding relative to 1 mM glycine” value in assay [4] was “− (−=0)”.

With `CC(C)(C)OC(=O)N1CC2(CN(OCc3ccccc3)C2=O)CC12CN(OCc1ccccc1)C2=O` (single isomer, unassigned) [AV, tert-butyl 2,8-bis(benzyloxy)-1,7-dioxo-2,8,10-triazadispiro[3.1.36.24]undecane-10-carboxylate], the EC50 in assay [1] (setting [8]) was above 100 nM; in assay [3] (setting [9]), below 1 nM. Further, the “NMDAR2A: % maximal [3H]MK-801 binding relative to 1 mM glycine” value in assay [2] was “− (−=0)”. Moreover, the “NMDAR2B: % maximal [3H]MK-801 binding relative to 1 mM glycine” value in assay [4] is reported as “+ (<100%=+)”.

Turning to `CC(C)(C)OC(=O)N1CC2(CN(OCc3ccccc3)C2=O)CC12CN(OCc1ccccc1)C2=O` (single isomer, unassigned) [AX, tert-butyl 2,8-bis(benzyloxy)-1,7-dioxo-2,8,10-triazadispiro[3.1.36.24]undecane-10-carboxylate], the EC50 is below 1 nM in assay [1] (setting [8]) and above 100 nM in assay [3] (setting [9]). The “NMDAR2A: % maximal [3H]MK-801 binding relative to 1 mM glycine” value in assay [2] is on record as “+ (<100%=+)”. The “NMDAR2B: % maximal [3H]MK-801 binding relative to 1 mM glycine” value in assay [4] is given as “− (−=0)”.

In the case of `CC(C)CN1C(C(=O)N[C@H](C(N)=O)[C@@H](C)O)CCC12CNC2=O` (single isomer, unassigned) [BA], the EC50 was below 1 nM in assay [1] (setting [8]), below 1 nM in assay [5] and above 100 nM in assay [3] (setting [9]). Besides, the Emax in assay [1] (50 μM glutamate) and in assay [5] was below 100% each time. Besides, the “NMDAR2B: % maximal [3H]MK-801 binding relative to 1 mM glycine” value in assay [4] was “− (−=0)”.

In the case of `CC(C)(C)OC(=O)N1C(C(N)=O)CCC12CNC2=O` (single isomer, unassigned) [BE], the Emax in assay [1] (50 μM glutamate) and in assay [5] was below 100% throughout. For the same compound, the values for the EC50 in assay [5] and in assay [3] (setting [9]) were below 1 nM and above 100 nM, respectively. For the same compound, the “NMDAR2B: % maximal [3H]MK-801 binding relative to 1 mM glycine” value in assay [4] is recorded as “− (−=0)”.

For `CC(C)(C)OC(=O)N1C(C(N)=O)CCC12CNC2=O` (single isomer, unassigned) [BF], the EC50 in assay [1] (setting [8]) and in assay [3] (setting [9]) was below 1 nM in each case. The “NMDAR2A: % maximal [3H]MK-801 binding relative to 1 mM glycine” value in assay [2] is “+ (<100%=+)”. The “NMDAR2B: % maximal [3H]MK-801 binding relative to 1 mM glycine” value in assay [4] is reported as “+ (<100%=+)”.

In the case of `C[C@@H](O)[C@H](NCC1CCC2(CNC2=O)N1C(=O)OC(C)(C)C)C(=O)N(C)C` (single isomer, unassigned) [BS], the EC50 in assay [1] (setting [8]) was above 100 nM; in assay [3] (setting [9]), below 1 nM. For the same compound, the “NMDAR2A: % maximal [3H]MK-801 binding relative to 1 mM glycine” value in assay [2] is recorded as “− (−=0)”. The “NMDAR2B: % maximal [3H]MK-801 binding relative to 1 mM glycine” value in assay [4] is recorded as “+ (<100%=+)”.

`C[C@@H](O)[C@H](NCC1CCC2(CNC2=O)N1C(=O)OC(C)(C)C)C(=O)N(C)C` (single isomer, unassigned) [BT]: the EC50 is below 1 nM in assay [1] (setting [8]) and above 100 nM in assay [3] (setting [9]). Further, the “NMDAR2A: % maximal [3H]MK-801 binding relative to 1 mM glycine” value in assay [2] is “+ (<100%=+)”. Further, in assay [4], the “NMDAR2B: % maximal [3H]MK-801 binding relative to 1 mM glycine” value is given as “− (−=0)”.

For `C[C@@H](O)[C@H](NC1CN(C(=O)OC(C)(C)C)C2(CNC2=O)C1)C(N)=O` (single isomer, unassigned) [CG], the EC50 is below 1 nM in assay [1] (setting [8]) and above 100 nM in assay [3] (setting [9]). Besides, the “NMDAR2A: % maximal [3H]MK-801 binding relative to 1 mM glycine” value in assay [2] was “+ (<100%=+)”. Moreover, the Emax in assay [3] (50 μM glutamate, relative to 1 mM glycine, read-out: NMDAR2B: % maximal [3H]MK-801 binding relative to 1 mM glycine) amounted to 0%. In assay [4], the “NMDAR2B: % maximal [3H]MK-801 binding relative to 1 mM glycine” value is given as “− (−=0)”.

Take `CC(O)C(C(N)=O)N(C)CC1CCC2(CNC2=O)N1` (single isomer, unassigned) [CV]: the EC50 in assay [1] (setting [8]) and in assay [3] (setting [9]) was below 1 nM throughout. Moreover, in assay [2], the “NMDAR2A: % maximal [3H]MK-801 binding relative to 1 mM glycine” value was “+ (<100%=+)”. The “NMDAR2B: % maximal [3H]MK-801 binding relative to 1 mM glycine” value in assay [4] is on record as “++ (>100%=++)”.

As to `O=C1NCC12CN(Cc1ccc(F)cc1)C1(CNC1=O)C2` (single isomer, unassigned) [DM, 10-(4-fluorobenzyl)-2,8,10-triazadispiro[3.1.3^6.2^4]undecane-1,7-dione], the EC50 in assay [1] (setting [8]) is below 1 nM. The “NMDAR2A: % maximal [3H]MK-801 binding relative to 1 mM glycine” value in assay [2] is recorded as “+ (<100%=+)”. In assay [4], the EC50 was below 1 nM and the “NMDAR2B: % maximal [3H]MK-801 binding relative to 1 mM glycine” value was “+ (<100%=+)”.

For the compound `O=C1NCC12CN(Cc1ccc(F)cc1)C1(CNC1=O)C2` (single isomer, unassigned) [DN, 10-(4-fluorobenzyl)-2,8,10-triazadispiro[3.1.3^6.2^4]undecane-1,7-dione], in assay [1] (setting [8]), the EC50 is below 1 nM. Besides, the “NMDAR2A: % maximal [3H]MK-801 binding relative to 1 mM glycine” value in assay [2] is “+ (<100%=+)”. In assay [4], the EC50 was below 1 nM and the “NMDAR2B: % maximal [3H]MK-801 binding relative to 1 mM glycine” value was “+ (<100%=+)”.

With `O=C1NCC12CN(Cc1ccccc1)C1(CNC1=O)C2` (single isomer, unassigned) [DO, 10-benzyl-2,8,10-triazadispiro[3.1.3^6.2^4]undecane-1,7-dione], the EC50 in assay [1] (setting [8]) was below 1 nM; in assay [3] (setting [9]), above 100 nM. Moreover, in assay [2], the “NMDAR2A: % maximal [3H]MK-801 binding relative to 1 mM glycine” value is given as “+ (<100%=+)”. For the same compound, the “NMDAR2B: % maximal [3H]MK-801 binding relative to 1 mM glycine” value in assay [4] was “− (−=0)”.

`O=C1NCC12CN(Cc1ccccc1)C1(CNC1=O)C2` (single isomer, unassigned) [DP, 10-benzyl-2,8,10-triazadispiro[3.1.3^6.2^4]undecane-1,7-dione]: the EC50 in assay [1] (setting [8]) and in assay [3] (setting [9]) was below 1 nM throughout. In addition, in assay [2], the “NMDAR2A: % maximal [3H]MK-801 binding relative to 1 mM glycine” value was “+ (<100%=+)”. In addition, the “NMDAR2B: % maximal [3H]MK-801 binding relative to 1 mM glycine” value in assay [4] is given as “++ (>100%=++)”.

`O=C1NCC12CN(Cc1ccccc1)C1(CNC1=O)C2` (single isomer, unassigned) [DQ, 10-benzyl-2,8,10-triazadispiro[3.1.3^6.2^4]undecane-1,7-dione]: the results for the EC50 in assay [1] (setting [8]) and in assay [3] (setting [9]) were above 100 nM and below 1 nM, respectively. The “NMDAR2A: % maximal [3H]MK-801 binding relative to 1 mM glycine” value in assay [2] was “− (−=0)”. Further, in assay [4], the “NMDAR2B: % maximal [3H]MK-801 binding relative to 1 mM glycine” value was “+ (<100%=+)”.

Turning to `O=C1NCC12CN(Cc1ccccc1)C1(CNC1=O)C2` (single isomer, unassigned) [DR, 10-benzyl-2,8,10-triazadispiro[3.1.3^6.2^4]undecane-1,7-dione], the EC50 in assay [1] (setting [8]) and in assay [3] (setting [9]) was below 1 nM throughout. Moreover, the “NMDAR2A: % maximal [3H]MK-801 binding relative to 1 mM glycine” value in assay [2] was “+ (<100%=+)”. In assay [4], the “NMDAR2B: % maximal [3H]MK-801 binding relative to 1 mM glycine” value is on record as “+ (<100%=+)”.

Usually EC50 stands for the midpoint of the concentration-response curve.
